{"source": "patent EP4015634A1", "about": "“SIRNA AND COMPOSITIONS FOR PROPHYLACTIC AND THERAPEUTIC TREATMENT OF VIRUS DISEASES” (SYLENTIS, S.A.U., priority 2020, dated 2022)", "origin": "cited, not measured here", "key": {"SARS-CoV-2": {"system": "SARS-CoV-2", "details": "in vitro studies"}, "patients with COVID-19": {"system": "patients with COVID-19", "details": "phase I"}}, "note": "*1 amine or outer side, *2 acyl side, *3 side chain or, on linkers, in order; H or OH if unused. Where a SMILES comes first, the peptide text is derived from it. Bridges are numbered along the chain shown (N, C = ends). [ ]: non-standard residue; d: D form. The star is where a group is joined. X1 = CC[C@H](C)[C@@H](N[*:1])[C@@H](O)CC(=O)O[C@H](C(=O)[C@H](C)C(=O)[*:2])C(C)C; NMeY = CN[C@@H](Cc1ccc(O)cc1)C(=O)O; dNMeL = CN[C@H](CC(C)C)C(=O)O; Pyruvoyl = CC(=O)C(=O)*"}
{"compound": "CC[C@H](C)[C@H]1NC(=O)[C@@H](NC(=O)[C@@H](CC(C)C)N(C)C(=O)[C@@H]2CCCN2C(=O)C(C)=O)[C@@H](C)OC(=O)[C@H](Cc2ccc(OC)cc2)N(C)C(=O)[C@@H]2CCCN2C(=O)[C@H](CC(C)C)NC(=O)[C@@H](C)C(=O)[C@H](C(C)C)OC(=O)C[C@@H]1O", "note": "[plitidepsin] (Pyruvoyl-P[dNMeL]T[X1]LP[NMeY](Me); ester 3-C)", "values": [{"measurement": "SARS-CoV-2 viral load in vitro", "setting": "SARS-CoV-2", "result": "reduced SARS-CoV-2 viral load at nanomolar concentrations"}, {"measurement": "primary safety endpoint", "setting": "patients with COVID-19; patients with COVID-19 who required hospitalization", "result": "met the primary safety endpoint"}, {"measurement": "preliminary secondary endpoints of efficacy", "setting": "patients with COVID-19; treated patients", "result": "substantial reduction in viral load and the C-reactive protein"}]}
